Drawing on patent US9725445B2, “Cycloalkyl nitrile pyrazolo pyridones as Janus kinase inhibitors” (Merck Sharp & Dohme Corp., priority 2013, dated 2017), this text covers IC50 for 24 compounds.

For one assay, the target named is JAK1 (Homo sapiens (Human), UniProt P23458). Description: Jak biochemical HTRF assay, JAK1. To be noted: HTRF biochemical assay, recombinant GST-tagged catalytic domain; read-out: JAK1 IC50. For orientation: TR-FRET usually uses a lanthanide donor and a delayed reading to cut background.
The target of the next assay is JAK2 (Homo sapiens (Human), UniProt O60674). Description: Jak biochemical HTRF assay, JAK2. The note with it: HTRF biochemical assay, recombinant GST-tagged catalytic domain; read-out: JAK2 IC50.
Sequence of JAK2 (O60674 849-1124): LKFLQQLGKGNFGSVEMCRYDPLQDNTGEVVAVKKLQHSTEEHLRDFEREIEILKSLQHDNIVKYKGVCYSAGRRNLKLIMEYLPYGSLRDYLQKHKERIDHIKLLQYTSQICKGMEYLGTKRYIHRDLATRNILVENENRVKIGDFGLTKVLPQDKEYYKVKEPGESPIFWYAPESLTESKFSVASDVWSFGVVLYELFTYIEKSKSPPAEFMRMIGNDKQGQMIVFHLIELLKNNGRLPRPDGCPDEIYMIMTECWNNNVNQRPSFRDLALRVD

Sequence of JAK1 (P23458 875-1153): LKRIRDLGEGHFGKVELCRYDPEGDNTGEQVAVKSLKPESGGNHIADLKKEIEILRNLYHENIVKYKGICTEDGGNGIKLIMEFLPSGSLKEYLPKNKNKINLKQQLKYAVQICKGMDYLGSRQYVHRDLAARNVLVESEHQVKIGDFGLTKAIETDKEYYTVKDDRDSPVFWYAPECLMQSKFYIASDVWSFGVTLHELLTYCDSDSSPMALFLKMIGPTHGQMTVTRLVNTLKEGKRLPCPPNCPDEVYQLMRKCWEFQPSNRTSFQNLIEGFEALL

In the case of `CSCc1cc(Cn2ccnn2)cc(Nc2nn([C@H]3CCCC[C@@H]3C#N)c3cc[nH]c(=O)c23)c1` [Example 3-78, (1S,2S)-2-[3-({3-[(methylsulfanyl)methyl]-5-(1H-1,2,3-triazol-1-ylmethyl)phenyl}amino)-4-oxo-4,5-dihydro-1H-pyrazolo[4,3-c]pyridin-1-yl]cyclohexanecarbonitrile], the IC50 (commonly the midpoint of a concentration-inhibition curve) was determined as 2000 pM at JAK1 and 4400 pM on JAK2.

In the case of `CC(C)N1Cc2cc(Nc3nn([C@H]4CCCC[C@@H]4C#N)c4cc[nH]c(=O)c34)ccc2S1(=O)=O` [Example 3-79, (1S,2S)-2-(3-{[2-(1-methylethyl)-1,1-dioxido-2,3-dihydro-1,2-benzisothiazol-5-yl]amino}-4-oxo-4,5-dihydro-1H-pyrazolo[4,3-c]pyridin-1-yl)cyclohexanecarbonitrile], the IC50 worked out at 71 pM on JAK1 and 480 pM at JAK2.

As to `N#C[C@H]1CCCC[C@@H]1n1nc(Nc2ccc3c(c2)CN(CCO)S3(=O)=O)c2c(=O)[nH]ccc21` [Example 3-80, (1S,2S)-2-(3-{[2-(2-hydroxyethyl)-1,1-dioxido-2,3-dihydro-1,2-benzisothiazol-5-yl]amino}-4-oxo-4,5-dihydro-1H-pyrazolo[4,3-c]pyridin-1-yl)cyclohexanecarbonitrile], the concentration for half-maximal inhibition (IC50) on JAK1 came to 79 pM; at JAK2, 920 pM.

For the compound `COCCN1Cc2cc(Nc3nn([C@H]4CCCC[C@@H]4C#N)c4cc[nH]c(=O)c34)ccc2S1(=O)=O` [Example 3-83, (1S,2S)-2-(3-{[2-(2-methoxyethyl)-1,1-dioxido-2,3-dihydro-1,2-benzisothiazol-5-yl]amino}-4-oxo-4,5-dihydro-1H-pyrazolo[4,3-c]pyridin-1-yl)cyclohexanecarbonitrile], the IC50 on JAK1 turned out to be 66 pM; at JAK2, 550 pM.

`CC(C)(O)c1cn(Cc2cccc(Nc3nn([C@H]4CCCC[C@@H]4C#N)c4cc[nH]c(=O)c34)c2)nn1` [Example 3-84, (1S,2S)-2-{3-[(3-{[4-(1-hydroxy-1-methylethyl)-1H-1,2,3-triazol-1-yl]methyl}phenyl)amino]-4-oxo-4,5-dihydro-1H-pyrazolo[4,3-c]pyridin-1-yl}cyclohexanecarbonitrile]: the IC50 on JAK1 came out at 520 pM; at JAK2, 2600 pM.

As to `COCC(C)(O)c1cc(Nc2nn([C@H]3CCCC[C@@H]3C#N)c3cc[nH]c(=O)c23)ccc1S(C)(=O)=O` (stereo partly drawn) [Example 3-85, (1S,2S)-2-(3-{[3-(1-hydroxy-2-methoxy-1-methylethyl)-4-(methylsulfonyl)phenyl]amino}-4-oxo-4,5-dihydro-1H-pyrazolo[4,3-c]pyridin-1-yl)cyclohexanecarbonitrile], the IC50 at JAK1 amounted to 3000 pM; on JAK2 it was 4200 pM.

Consider `CC(O)(CO)c1cc(Nc2nn([C@H]3CCCC[C@@H]3C#N)c3cc[nH]c(=O)c23)ccc1S(C)(=O)=O` (stereo partly drawn) [Example 3-87, (1S,2S)-2-(3-{[3-(1,2-dihydroxy-1-methylethyl)-4-(methylsulfonyl)phenyl]amino}-4-oxo-4,5-dihydro-1H-pyrazolo[4,3-c]pyridin-1-yl)cyclohexanecarbonitrile], for which the figures for the IC50 on JAK1 and at JAK2 were 250 pM and 950 pM, respectively.

`N#C[C@H]1C[C@H](O)CC[C@@H]1n1nc(Nc2ccc(Cl)cc2)c2c(=O)[nH]ccc21` [Example 3-90, (1S,2S,5R)-2-(3-((4-chlorophenyl)amino)-4-oxo-4,5-dihydro-1H-pyrazolo[4,3-c]pyridin-1-yl)-5-hydroxycyclohexanecarbonitrile]: the IC50 was determined as 280 pM at JAK1 and 7300 pM at JAK2.

For the compound `N#C[C@H]1CCCC[C@@H]1n1nc(Nc2ccc(Cl)cc2)c2c(=O)[nH]ccc21` [Example 3-91, (1S,2S)-2-(3-((4-chlorophenyl)amino)-4-oxo-4,5-dihydro-1H-pyrazolo[4,3-c]pyridin-1-yl)cyclohexanecarbonitrile], the values for the IC50 at JAK1 and on JAK2 were 450 pM and 10300 pM, respectively.

Turning to `N#C[C@H]1CCC[C@@H]1n1nc(Nc2ccnc(F)c2)c2c(=O)[nH]ccc21` [Example 3-92, (1S,2S)-2-{3-[(2-fluoropyridin-4-yl)amino]-4-oxo-4,5-dihydro-1H-pyrazolo[4,3-c]pyridin-1-yl}cyclopentanecarbonitrile], the values for the IC50 on JAK1 and on JAK2 were 640 pM and 5700 pM, respectively.

Regarding `N#C[C@@H]1CCC[C@H]1n1nc(Nc2ccnc(F)c2)c2c(=O)[nH]ccc21` [Example 3-93, (1R,2R)-2-{3-[(2-fluoropyridin-4-yl)amino]-4-oxo-4,5-dihydro-1H-pyrazolo[4,3-c]pyridin-1-yl}cyclopentanecarbonitrile], the IC50 at JAK1 was found to be 12000 pM; on JAK2 it was 48000 pM.

As to `N#C[C@H]1CCC[C@@H]1n1nc(Nc2ccc3c(c2)CN(CC(F)(F)F)C3=O)c2c(=O)[nH]ccc21` [Example 3-97, (1S,2S)-2-(4-oxo-3-{[1-oxo-2-(2,2,2-trifluoroethyl)-2,3-dihydro-1H-isoindol-5-yl]amino}-4,5-dihydro-1H-pyrazolo[4,3-c]pyridin-1-yl)cyclopentanecarbonitrile], the IC50 was 82 pM on JAK1 and 440 pM on JAK2.

For the compound `N#C[C@H]1CCC[C@@H]1n1nc(Nc2ccc(C(O)C(F)(F)F)cc2)c2c(=O)[nH]ccc21` (stereo partly drawn) [Example 3-98, (1S,2S)-2-(4-oxo-3-{[4-(2,2,2-trifluoro-1-hydroxyethyl)phenyl]amino}-4,5-dihydro-1H-pyrazolo[4,3-c]pyridin-1-yl)cyclopentanecarbonitrile], the IC50 at JAK1 was found to be 75 pM; at JAK2, 530 pM.

`CC(C)(C)N1Cc2cc(Nc3nn([C@H]4CCC[C@@H]4C#N)c4cc[nH]c(=O)c34)ccc2S1(=O)=O` [Example 3-100, (1S,2S)-2-{3-[(2-tert-butyl-1,1-dioxido-2,3-dihydro-1,2-benzisothiazol-5-yl)amino]-4-oxo-4,5-dihydro-1H-pyrazolo[4,3-c]pyridin-1-yl}cyclopentanecarbonitrile]: the values for the IC50 at JAK1 and on JAK2 were 43 pM and 280 pM, respectively.

For the compound `N#C[C@H]1CCC[C@@H]1n1nc(Nc2ccc3c(c2)CN(CC(F)(F)F)S3(=O)=O)c2c(=O)[nH]ccc21` [Example 3-101, (1S,2S)-2-(3-{[1,1-dioxido-2-(2,2,2-trifluoroethyl)-2,3-dihydro-1,2-benzisothiazol-5-yl]amino}-4-oxo-4,5-dihydro-1H-pyrazolo[4,3-c]pyridin-1-yl)cyclopentanecarbonitrile], the IC50 on JAK1 was 56 pM; on JAK2, 500 pM.

In the case of `CN1Cc2cc(Nc3nn([C@H]4CCC[C@@H]4C#N)c4cc[nH]c(=O)c34)ccc2S1(=O)=O` [Example 3-102, (1S,2S)-2-{3-[(2-methyl-1,1-dioxido-2,3-dihydro-1,2-benzisothiazol-5-yl)amino]-4-oxo-4,5-dihydro-1H-pyrazolo[4,3-c]pyridin-1-yl}cyclopentanecarbonitrile], the IC50 at JAK1 was 51 pM; on JAK2, 660 pM.

Regarding `CC(C)S(=O)(=O)c1ccc(Nc2nn([C@H]3CCC[C@@H]3C#N)c3cc[nH]c(=O)c23)cc1` [Example 3-105, (1S,2S)-2-[3-({4-[(1-methylethyl)sulfonyl]phenyl}amino)-4-oxo-4,5-dihydro-1H-pyrazolo[4,3-c]pyridin-1-yl]cyclopentanecarbonitrile], the IC50 at JAK1 worked out at 110 pM; on JAK2, 400 pM.

On to `CC(C)(C)S(=O)(=O)c1ccc(Nc2nn([C@H]3CCC[C@@H]3C#N)c3cc[nH]c(=O)c23)cc1` [Example 3-106, (1S,2S)-2-(3-{[4-(tert-butylsulfonyl)phenyl]amino}-4-oxo-4,5-dihydro-1H-pyrazolo[4,3-c]pyridin-1-yl)cyclopentanecarbonitrile], for which the IC50 on JAK1 worked out at 120 pM; at JAK2, 360 pM.

Take `CC(C)(C)NS(=O)(=O)c1ccc(Nc2nn([C@H]3CCC[C@@H]3C#N)c3cc[nH]c(=O)c23)cc1` [Example 3-107, N-tert-butyl-4-({1-[(1S,2S)-2-cyanocyclopentyl]-4-oxo-4,5-dihydro-1H-pyrazolo[4,3-c]pyridin-3-yl}amino)benzenesulfonamide]: the 50% inhibitory concentration (IC50) turned out to be 220 pM at JAK1 and 480 pM at JAK2.

As for `N#Cc1ccc(Nc2nn([C@H]3CCC[C@@H]3C#N)c3cc[nH]c(=O)c23)cc1` [Example 3-112, 4-({1-[(1S,2S)-2-cyanocyclopentyl]-4-oxo-4,5-dihydro-1H-pyrazolo[4,3-c]pyridin-3-yl}amino)benzonitrile], the results for the IC50 at JAK1 and on JAK2 were 250 pM and 1200 pM, respectively.

As for `CC(C)(C)NS(=O)(=O)c1ccc(Nc2nn([C@H]3CCCC[C@@H]3C#N)c3cc[nH]c(=O)c23)cc1` [Example 3-140, N-tert-butyl-4-({1-[(1S,2S)-2-cyanocyclohexyl]-4-oxo-4,5-dihydro-1H-pyrazolo[4,3-c]pyridin-3-yl}amino)benzenesulfonamide], the concentration for half-maximal inhibition (IC50) was found to be 170 pM on JAK1 and 430 pM on JAK2.

In the case of `CN(C(C)(C)C)S(=O)(=O)c1ccc(Nc2nn([C@H]3CCCC[C@@H]3C#N)c3cc[nH]c(=O)c23)cc1` [Example 3-142, N-tert-butyl-4-({1-[(1S,2S)-2-cyanocyclohexyl]-4-oxo-4,5-dihydro-1H-pyrazolo[4,3-c]pyridin-3-yl}amino)-N-methylbenzenesulfonamide], the IC50 at JAK1 amounted to 290 pM; on JAK2 it was 680 pM.

For the compound `CNS(=O)(=O)c1ccc(Nc2nn([C@H]3CCCC[C@@H]3C#N)c3cc[nH]c(=O)c23)cc1` [Example 3-144, 4-({1-[(1S,2S)-2-cyanocyclohexyl]-4-oxo-4,5-dihydro-1H-pyrazolo[4,3-c]pyridin-3-yl}amino)-N-methylbenzenesulfonamide], the figures for the IC50 at JAK1 and at JAK2 were 99 pM and 590 pM, respectively.

Take `COCCn1cc(-c2ccc(Nc3nn([C@H]4CCCC[C@@H]4C#N)c4cc[nH]c(=O)c34)cc2)cn1` [Example 3-145, (1S,2S)-2-[3-({4-[1-(2-methoxyethyl)-1H-pyrazol-4-yl]phenyl}amino)-4-oxo-4,5-dihydro-1H-pyrazolo[4,3-c]pyridin-1-yl]cyclohexanecarbonitrile]: the IC50 is 120 pM at JAK1 and 1800 pM at JAK2.
